Assay results from ChEMBL document CHEMBL4304811, “Development of a Water-Soluble Indolylmaleimide Derivative IM-93 Showing Dual Inhibition of Ferroptosis and NETosis” (ACS Med Chem Lett, 2019).
pIC50: −log10 of the molar value.

Assays:
[1] = biological target: Ankyrin repeat and protein kinase domain-containing protein 1 (Homo sapiens) (UniProt Q8NFD2); test: Binding affinity to wild-type human partial length ANKK1 (M1 to A305 residues) expressed in mammalian expression system assessed as residual binding level at 10 uM by Kinomescan method relative to control
[2] = biological target: Phosphatidylinositol 5-phosphate 4-kinase type-2 gamma (Homo sapiens) (UniProt Q8TBX8); test: Binding affinity to wild-type human partial length PIP5K2C (M1 to A421 residues) expressed in mammalian expression system assessed as residual binding level at 10 uM by Kinomescan method relative to control
[3] = biological target: Cyclin-dependent kinase 9 (Homo sapiens) (UniProt P50750); test: Binding affinity to wild-type human full length CDK9 (M1 to F372 residues) expressed in bacterial expression system assessed as residual binding level at 10 uM by Kinomescan method relative to control
[4] = tested on: Epidermal growth factor receptor (Homo sapiens), P00533 [UNDEFINED MUTATION]; test: Binding affinity to human partial length EGFR E746-A750del mutant expressed in bacterial expression system assessed as residual binding level at 10 uM by Kinomescan method relative to control
[5] = biological target: BDNF/NT-3 growth factors receptor (Homo sapiens) (UniProt Q16620); test: Binding affinity to wild-type human partial length TRKB (Q547 to G838 residues) expressed in mammalian expression system assessed as residual binding level at 10 uM by Kinomescan method relative to control
[6] = biological target: Proto-oncogene tyrosine-protein kinase Src (Homo sapiens) (UniProt P12931); test: Binding affinity to wild-type human partial length SRC (L240 to L536 residues) expressed in bacterial expression system assessed as residual binding level at 10 uM by Kinomescan method relative to control
[7] = biological target: Homeodomain-interacting protein kinase 3 (Homo sapiens) (UniProt Q9H422); test: Binding affinity to wild-type human partial length HIPK3 (M153 to N562 residues) expressed in mammalian expression system assessed as residual binding level at 10 uM by Kinomescan method relative to control
[8] = biological target: Peripheral plasma membrane protein CASK (Homo sapiens) (UniProt O14936); test: Binding affinity to wild-type human partial length CASK (M1 to H315 residues) expressed in mammalian expression system assessed as residual binding level at 10 uM by Kinomescan method relative to control
NIH3T3 = test: Inhibition of erastin-induced ferroptosis in mouse NIH/3T3 cells after 24 hrs by WST-8 assay; format: functional, cell-based; settings: NIH3T3, 24 h
[9] = biological target: Leukocyte tyrosine kinase receptor (Homo sapiens) (UniProt P29376); test: Binding affinity to wild-type human partial length LTK (P422 to S744 residues) expressed in bacterial expression system assessed as residual binding level at 10 uM by Kinomescan method relative to control
[10] = biological target: Cyclin-dependent kinase 16 (Homo sapiens) (UniProt Q00536); test: Binding affinity to wild-type human partial length PCTK1 (G160 to A474 residues) expressed in mammalian expression system assessed as residual binding level at 10 uM by Kinomescan method relative to control
[11] = biological target: Ribosomal protein S6 kinase alpha-2 (Homo sapiens) (UniProt Q15349); test: Binding affinity to wild-type human partial length N- terminal RSK3 kinase domain 1 (M1 to Q385 residues) expressed in bacterial expression system assessed as residual binding level at 10 uM by Kinomescan method relative to control
[12] = biological target: RAC-beta serine/threonine-protein kinase (Homo sapiens) (UniProt P31751); test: Binding affinity to wild-type human partial length AKT2 expressed in bacterial expression system assessed as residual binding level at 10 uM by Kinomescan method relative to control
[13] = biological target: Cyclin-G-associated kinase (Homo sapiens) (UniProt O14976); test: Binding affinity to wild-type human partial length GAK (G13 to Y338 residues) expressed in bacterial expression system assessed as residual binding level at 10 uM by Kinomescan method relative to control
[14] = biological target: Non-receptor tyrosine-protein kinase TNK1 (Homo sapiens) (UniProt Q13470); test: Binding affinity to wild-type human full length TNK1 (M1 to P661 residues) expressed in bacterial expression system assessed as residual binding level at 10 uM by Kinomescan method relative to control
[15] = tested on: Tyrosine-protein kinase ABL1 (Homo sapiens), P00519 [E255K]; test: Binding affinity to human phosphorylated ABL1 E255K mutant (S229 to K512 residues) expressed in mammalian expression system assessed as residual binding level at 10 uM by Kinomescan method relative to control
[16] = tested on: Receptor-type tyrosine-protein kinase FLT3 (Homo sapiens), P36888 [UNDEFINED MUTATION]; test: Binding affinity to human partial length FLT3 ITD mutant expressed in bacterial expression system assessed as residual binding level at 10 uM by Kinomescan method relative to control
[17] = biological target: Bone morphogenetic protein receptor type-1B (Homo sapiens) (UniProt O00238); test: Binding affinity to wild-type human partial length BMPR1B (D178 to L502 residues) expressed in mammalian expression system assessed as residual binding level at 10 uM by Kinomescan method relative to control
[18] = biological target: Serine/threonine-protein kinase DCLK3 (Homo sapiens) (UniProt Q9C098); test: Binding affinity to wild-type human partial length DCAMKL3 (E140 to V628 residues) expressed in bacterial expression system assessed as residual binding level at 10 uM by Kinomescan method relative to control
[19] = biological target: Cyclin-dependent kinase 3 (Homo sapiens) (UniProt Q00526); test: Binding affinity to wild-type human full length CDK3 (M1 to H305 residues) expressed in bacterial expression system assessed as residual binding level at 10 uM by Kinomescan method relative to control
[20] = biological target: Serine/threonine-protein kinase Sgk1 (Homo sapiens) (UniProt O00141); test: Binding affinity to wild-type human partial length SGK (I60 to L431 residues) expressed in mammalian expression system assessed as residual binding level at 10 uM by Kinomescan method relative to control
[21] = biological target: STE20/SPS1-related proline-alanine-rich protein kinase (Homo sapiens) (UniProt Q9UEW8); test: Binding affinity to wild-type human partial length STK39 (P43 to I357 residues) expressed in mammalian expression system assessed as residual binding level at 10 uM by Kinomescan method relative to control
[22] = biological target: Non-receptor tyrosine-protein kinase TYK2 (Homo sapiens) (UniProt P29597); test: Binding affinity to wild-type human partial length TYK2 JH2 pseudokinase domain (G556 to D888 residues) expressed in mammalian expression system assessed as residual binding level at 10 uM by Kinomescan method relative to control
[23] = biological target: Casein kinase II subunit alpha' (Homo sapiens) (UniProt P19784); test: Binding affinity to wild-type human full length CSNK2A2 (M1 to R350 residues) expressed in mammalian expression system assessed as residual binding level at 10 uM by Kinomescan method relative to control
[24] = biological target: Non-receptor tyrosine-protein kinase TYK2 (Homo sapiens) (UniProt P29597); test: Binding affinity to wild-type human partial length TYK2 JH1 catalytic domain (V877 to C1187 residues) expressed in mammalian expression system assessed as residual binding level at 10 uM by Kinomescan method relative to control

CC(C)N1C(=O)C(NCCCN(C)C)=C(c2cn(C)c3ccccc23)C1=O.Cl
Activity [1]: 90%
Activity [2]: 83%
Activity [3]: 100%
Activity [4]: 100%
Activity [5]: 94%
Activity [6]: 93%
Activity [7]: 90%
Activity [8]: 92%
pIC50 (NIH3T3): 5.72
Activity [9]: 100%
Activity [10]: 92%
Activity [11]: 100%
Activity [12]: 100%
Activity [13]: 94%
Activity [14]: 95%
Activity [15]: 89%
Activity [16]: 82%
Activity [17]: 78%
Activity [18]: 100%
Activity [19]: 99%
Activity [20]: 95%
Activity [21]: 98%
Activity [22]: 88%
Activity [23]: 78%
Activity [24]: 82%
